Legend:
[1] = target: T1, human TLR8 (Homo sapiens, UniProt Q9NR97); assay: HEK293-Blue-hTLR-8 cells assay; format: cell-based; settings: HEK293-Blue-hTLR8 cells, R848 stimulation, 20 hrs, SEAP reporter; read-out: HEK/hTLR8 IC50
T1 construct: host or cells: HEK293 (HEK-Blue hTLR8)
T1 sequence (Q9NR97 27-1041): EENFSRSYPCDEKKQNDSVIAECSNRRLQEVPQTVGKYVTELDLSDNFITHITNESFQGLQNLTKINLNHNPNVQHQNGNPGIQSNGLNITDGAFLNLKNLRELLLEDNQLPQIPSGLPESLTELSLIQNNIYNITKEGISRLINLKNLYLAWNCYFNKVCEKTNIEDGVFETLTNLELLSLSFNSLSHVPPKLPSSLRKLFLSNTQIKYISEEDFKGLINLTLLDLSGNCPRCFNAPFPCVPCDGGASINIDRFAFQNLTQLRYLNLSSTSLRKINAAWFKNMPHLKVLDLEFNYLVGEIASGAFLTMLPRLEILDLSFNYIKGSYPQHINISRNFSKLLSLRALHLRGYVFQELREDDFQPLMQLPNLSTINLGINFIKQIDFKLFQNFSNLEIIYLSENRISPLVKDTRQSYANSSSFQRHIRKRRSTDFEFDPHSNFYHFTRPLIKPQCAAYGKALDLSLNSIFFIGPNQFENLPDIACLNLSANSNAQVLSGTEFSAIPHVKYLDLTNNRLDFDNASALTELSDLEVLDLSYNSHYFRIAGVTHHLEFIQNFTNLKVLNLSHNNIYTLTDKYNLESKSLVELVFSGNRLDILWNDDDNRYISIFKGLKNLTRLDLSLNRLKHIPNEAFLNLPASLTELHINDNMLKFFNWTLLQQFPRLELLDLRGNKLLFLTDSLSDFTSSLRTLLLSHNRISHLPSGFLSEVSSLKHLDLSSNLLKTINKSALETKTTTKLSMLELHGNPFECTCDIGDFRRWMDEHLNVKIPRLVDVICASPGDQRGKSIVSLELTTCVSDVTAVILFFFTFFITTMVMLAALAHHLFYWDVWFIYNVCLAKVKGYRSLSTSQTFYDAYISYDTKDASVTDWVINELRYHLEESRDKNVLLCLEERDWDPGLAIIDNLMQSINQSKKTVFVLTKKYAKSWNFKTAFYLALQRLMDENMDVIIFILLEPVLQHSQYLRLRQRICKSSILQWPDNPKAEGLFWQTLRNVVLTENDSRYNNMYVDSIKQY
Excerpt: A stable HEK293-Blue-hTLR-8 cell line was purchased from InvivoGen (Cat.#: hkb-htlr8, San Diego, California, USA). These cells were originally designed for studying the stimulation of human TLR8 by monitoring the activation of NF-κB. A SEAP (secreted embryonic alkaline phosphatase) reporter gene was placed under the control of the IFN-β minimal promoter fused to five NF-κB and AP-1-binding sites. The SEAP was induced by activating NF-κB and AP-1 via stimulating HEK-Blue hTLR8 cells with TLR8 ligands. Therefore the reporter expression was declined by TLR8 antagonist under the stimulation of a ligand, such as R848, for incubation of 20 hrs. The cell culture supernatant SEAP reporter activity was determined using QUANTI-Blue™ kit (Cat.#: rep-qb1, Invivogen, San Diego, Ca, USA) at a wavelength of 640 nm, a detection medium that turns purple or blue in the presence of alkaline phosphatase.
HEK293-Blue-hTLR8 cells were incubated at a density of 250,000~450,000 cells/mL in a volume of 170 µL in a 96-well plate in Dulbecco’s Modified Eagle’s medium (DMEM) containing 4.5 g/L glucose, 50 U/mL penicillin, […], […], 2 mM L-glutamine, 10% (v/v) heat-inactivated fetal bovine serum with addition of 20 µL test compound in a serial dilution in the presence of final DMSO at 1% and 10 µL of 60uM R848 in above DMEM, perform incubation under 37° C. in a CO2 incubator for 20 hrs. Then 20 µL of the supernatant from each well was incubated with 180 µL Quanti-blue substrate solution at 37° C. for 2 hrs and the absorbance was read at 620 \~655 nm using a spectrophotometer. The signaling pathway that TLR8 activation leads to downstream NF-κB activation has been widely accepted, and therefore similar reporter assay was modified for evaluating TLR8 antagonist.

[2] = Human microsome stability assay; format: in vitro ADME; settings: 1 µM test compound, 0.5 mg/mL liver microsomal protein, 37° C., pH 7.4
Protocol: The human microsomal stability assay is used for early assessment of metabolic stability of a test compound in human liver microsomes.
Human liver microsomes (Cat.NO.: 452117, Corning, USA;Cat.NO.:H2610, Xenotech, USA) were preincubated with test compound for 10 minutes at 37° C. in 100 mM potassium phosphate buffer, pH 7.4. The reactions were initiated by adding NADPH regenerating system. The final incubation mixtures contained 1 µM test compound, 0.5 mg/mL liver microsomal protein, 1 mM MgCl2, 1 mM NADP, 1 unit/mL isocitric dehydrogenase and 6 mM isocitric acid in 100 mM potassium phosphate buffer, pH 7.4. After incubation times of 0, 3, 6, 9, 15 and 30 minutes at 37° C., 300 µL of cold acetonitrile (including internal standard) was added to 100 µL incubation mixture to terminate the reaction. Following precipitation and centrifugation, the amount of compound remaining in the samples were determined by LC-MS/MS. Controls of no NADPH regenerating system at zero and 30 minutes were also prepared and analyzed.

IC50 [1] [nM]	Clearance of Human microsome [2] [mL/min/kg]	Structure (SMILES)
0.7	6.5	CCc1nc(N2CCN(Cc3cnc(N4CC5(CNCCO5)C4)nc3)CC2)ccc1-c1cc(C)c(=O)n(C)c1 [Example 1, 5-[2-ethyl-6-[4-[[2-(5-oxa-2,8-diazaspiro[3.5]nonan-2-yl)pyrimidin-5-yl]methyl]piperazin-1-yl]-3-pyridyl]-1,3-dimethyl-pyridin-2-one]
0.3	12.0	CCc1nc(N2CCN(Cc3ccc(N4CC5(CNCCO5)C4)nc3)CC2)ccc1-c1cc(C)c(=O)n(C)c1 [Example 2, 5-[2-ethyl-6-[4-[[6-(5-oxa-2,8-diazaspiro[3.5]nonan-2-yl)-3 pyridyl]methyl]piperazin-1-yl]-3-pyridyl]-1,3-dimethyl-pyridin-2-one]
0.3	6.1	CCc1nc(N2CCN(Cc3cnc(N4CC(C)(N)C4)nc3)CC2)ccc1-c1cc(C)c(=O)n(C)c1 [Example 3, 5-[6-[4-[[2-(3-amino-3-methyl-azetidin-1-yl)pyrimidin-5-yl]methyl]piperazin-1-yl]-2-ethyl-3-pyridyl]-1,3-dimethyl-pyridin-2-one]
0.6	–	CCc1nc(N2CCN(Cc3cnc(N4CCOC[C@@H](N)C4)nc3)CC2)ccc1-c1cc(C)c(=O)n(C)c1 [Example 4, 5-[6-[4-[[2-[(6S)-6-amino-1,4-oxazepan-4-yl]pyrimidin-5-yl]methyl]piperazin-1-yl]-2-ethyl-3-pyridyl]-1,3-dimethyl-pyridin-2-one]
0.3	–	CCc1nc(N2CCN(Cc3ccc(N4CCNCC4)cc3)CC2)ccc1-c1cc(C)c(=O)n(C)c1 [Example 5, 5-[2-ethyl-6-[4-[(4-piperazin-1-ylphenyl)methyl]piperazin-1-yl]-3-pyridyl]-1,3-dimethyl-pyridin-2-one]
0.3	–	Cc1cc(-c2ccc(N3CCN(Cc4cnc(N5CC6(CNCCO6)C5)nc4)CC3)nc2C(C)C)cn(C)c1=O [Example 6, 5-[2-isopropyl-6-[4-[[2-(5-oxa-2,8-diazaspiro[3.5]nonan-2-yl)pyrimidin-5-yl]methyl]piperazin-1-yl]-3-pyridyl]-1,3-dimethyl-pyridin-2-one]
0.3	–	Cc1cc(-c2ccc(N3CCN(Cc4cnc(N5CC(C)(N)C5)nc4)CC3)nc2C(C)C)cn(C)c1=O [Example 10, 5-[6-[4-[[2-(3-amino-3-methyl-azetidin-1-yl)pyrimidin-5-yl]methyl]piperazin-1-yl]-2-isopropyl-3-pyridyl]-1,3-dimethyl-pyridin-2-one]
0.3	–	Cc1cc(-c2ccc(N3CCN(Cc4ccc(N5CCNCC5)nc4)CC3)nc2C(C)C)cn(C)c1=O [Example 11, 5-[2-isopropyl-6-[4-[(6-piperazin-1-yl-3-pyridyl)methyl]piperazin-1-yl]-3-pyridyl]-1,3-dimethyl-pyridin-2-one]
0.3	–	Cc1cc(-c2ccc(N3CCN(Cc4ccc(N5CCNCC5)cc4)CC3)nc2C(C)C)cn(C)c1=O [Example 13, 5-[2-isopropyl-6-[4-[(4-piperazin-1-ylphenyl)methyl]piperazin-1-yl]-3-pyridyl]-1,3-dimethyl-pyridin-2-one]
2	–	Cc1cc(-c2ccc(N3CCN4CCN(c5ccc(N6CCNCC6)nc5)CC4C3)nc2C(C)C)cn(C)c1=O (centres unmarked) [Example 16, 5-[2-isopropyl-6-[8-(6-piperazin-1-yl-3-pyridyl)-3,4,6,7,9,9a-hexahydro-1H-pyrazino[1,2-a]pyrazin-2-yl]-3-pyridyl]-1,3-dimethyl-pyridin-2-one]
5.9	–	CCc1nc(N2CCN3CCN(c4cnc(N5CC6(CNCCO6)C5)nc4)CC3C2)ccc1-c1cc(C)c(=O)n(C)c1 (centres unmarked) [Example 19, 5-[2-ethyl-6-[2-[2-(5-oxa-2,8-diazaspiro[3.5]nonan-2-yl)pyrimidin-5-yl]-3,4,6,7,9,9a-hexahydro-1H-pyrazino[1,2-a]pyrazin-8-yl]-3-pyridyl]-1,3-dimethyl-pyridin-2-one]

Source: patent publication US20230295109A1, “PYRIDINONE COMPOUNDS FOR THE TREATMENT OF AUTOIMMUNE DISEASE” (F. Hoffmann-La Roche AG, priority 2020, published 2023)
